From patent publication US10640468B2, “1-(4-(2-((1-(3,4-difluorophenyl)-1H-pyrazol-3-Yl)methoxy)ethyl)piperazin-1- Yl)ethanone salts” (ESTEVE PHARMACEUTICALS S.A., priority 2015, dated 2020)
Where “and” joins values, the source holds several entries; their conditions need not be identical. Identical values can stand only once. Counter-ions that a name gives are not always drawn. Like-named read-outs stand apart in the source and are kept apart here.

Assays:
[1] = Thermodynamic solubility at pH 7.4; assay type: physicochemical; conditions: for solubility thermodynamic at 24 h: phosphate buffer, 25 °C, pH 7.4, aqueous buffer, thermodynamic from solid
Description: General protocol for thermodynamic solubility at pH 7.4 and pH 2 are described. • A) Thermodynamic Solubility at pH 7.4
Phosphate buffer at pH 7.4 (25 mM) was prepared as follows:
A solution 25 mM of Na2HPO4.12H2O (for 1 L of water, weight 8.96 g) was prepared
A solution 25 mM de KH2PO4 (for 1 L of water weight 3.4 g) was prepared.
Disodium phosphate solution (812 mL) and potassium phosphate (182 mL) solution were mixed and pH checked to be 7.4.
Equipment • Precision analytical balance Mettler Toledo AT20. • Analytical balance Mettler Toledo PJ300. • Liquid chromatograph Waters Alliance 2695. • Stirrer Thermomixer Control of Eppendorf a 25° C. y 1250 rpm • pHmeter with combined semi-micro electrode.
Around 4 mg of compound in an HPLC vial (by duplicate) was dissolved in 1 mL of buffer solution. After stirring in Thermomixer Comfort system for 24 hours at 25° C., in order to achieve thermodynamic equilibrium, solution was centrifuged at 3000 rpm for 15 minutes.
The resulting upper layer was collected with a glass pipette and transferred to the HPLC vials in order to inject them (10 μL) directly to the HPLC instrument.
Standards were made in methanol to ensure overall compound solubility. Preparation of standard calibrators is illustrated below:
Sol.A: 4 mg in 1 mL methanol (4000 μg/mL)
Sol.B: 0.5 mL Sol.A to 5 mL with methanol (400 μg/mL)
Sol.C: 1 mL Sol.B to 10 mL with methanol (40 μg/mL)
Sol.D: 5 mL […] to 50 mL with methanol (4 μg/mL)
Sol.E: 4 mL Sol.D to 10 mL with methanol (1.6 μg/mL)
Calibration curve was created through 10 μL injection of standards, beginning with the more diluted standard. Blanks were also injected, for checking the absence of contamination.
10 μl of test substance were injected, by duplicate, and the average peak area interpolated in the calibration curve (see Tables Examples below).
Chromatographic Conditions • Column: XBridge C18 (or similar) 2.5 μm 4.6×50 mm • Temperature: 35° C. • Mobile phase: ACN/ammonium bicarbonate 10 mM. • Gradient: 0-3.5 min: from 15% CAN to 95% CAN • 3.5-5 min: 95% ACN • 5-6 min: 95 a 15% ACN • 6-8 min: 15% ACN • Flow: 1.5 mL/min • Detection: around the maximum UV wavelength. • B) Thermodynamic Solubility at pH 2

[2] = Pharmacokinetics after single oral administration to male Wistar rat; assay type: in vivo
Description: The pharmacokinetics of Example 1 and 2 were tested using the following protocol:
Male Wistar rats weighing 250 to 300 g (±20) supplied by Harlan were used. Water and food was available ad libitum throughout the study.
Administration and Sample Collection
Two rats (R1 and R2) were used in the pharmacokinetic oral studies.
A single dose of tested compound was administered by oral gavage [10 mg/kg as free base (Example 0)] in 0.5% hydroxypropyl methylcellulose (1 mg/ml). From each rat, serial blood samples were collected at 15 and 30 min, 1, 2, 3, 5, 7 and 24 h.
Blood was collected from the saphenous veins into heparinized tubes. Plasma was obtained by blood centrifugation at 4° C. and 2280×g for 10 min and kept at −80° C. until analysis.
Tested compound concentration in plasma samples was determined by least-squares linear regression using a ten-point calibration curve. The calibration curve was prepared in blank plasma from a working solution of 1 mg/ml in DMSO.
Samples were thawed at room temperature on the day of analysis. After plasma protein precipitation of samples and calibration standards with acetonitrile (1:4.3; v/v), the mixture was vortexed and centrifuged (4° C. and 16090×g for 10 min).
Tested compound plasma concentrations were determined by high performance liquid chromatography-triple quadrupole mass spectrometry (HPLC-MS/MS) through the following method:
Column: Atlantis® T3 column (2.1×100 mm, 3 μm) (Waters).
Mobile phase: A: 0.0155% Formic water • B: 0.0155% Formic Acetonitrile
Autosampler wash: Solvent 1:Acetonitrile • Solvent 2: 5% Acetonitrile+95% Water
Standard pharmacokinetic parameters, such as area under the curve (AUC), peak plasma concentration (Cmax), time to peak concentration (tmax), oral bioavailability (F), total plasma clearance (Cl), volume of distribution at steady-state (Vss), mean residence time (MRT) and terminal half-life (t1/2), were determined by non-compartmental analysis of the plasma concentration-time curves (Phoenix v. 6.2.1.51, Pharsight, C A).

[3] = mean of 2 rats, 10 mg/kg oral, hydrochloride, 10 mg/kg

Structure (SMILES): CC(=O)N1CCN(CCOCc2ccn(-c3ccc(F)c(F)c3)n2)CC1 [Example 1, hydrochloride]
- Conc. ([1]; pH 7.4, single HPLC injections of duplicate vials, hydrochloride): 3928 µg/mL and 3817.1 µg/mL and 4301.5 µg/mL and 4345.3 µg/mL
- solubility thermodynamic at 24 h ([1]; pH 7.4, mean of 4 injections, read-out: Conc. Mean): 4100 µg/mL
- solubility thermodynamic at 24 h ([1]; pH=7.4, 24 hours at 25° C., completely dissolved, read-out: thermodynamic solubility): > 4000 µg/mL
- F ([2]; animal 1, 10 mg/kg oral, mean AUC after i.v. administration used for calculation, hydrochloride): 66%
- F ([2]; animal 2, 10 mg/kg oral, mean AUC after i.v. administration used for calculation, hydrochloride): 53%
- Vd ([2]; male, Wistar, plasma, rat, total body water volume 0.6 l/kg, read-out: volume of distribution): 1.2 L/kg
- bioavailability ([2]; male, Wistar, rat, plasma, oral, 10 mg/kg, mean of 2 rats, 10 mg/kg oral, mean AUC after i.v. administration used for calculation, read-out: F (oral bioavailability)): 60%
- AUC ([2]; male, Wistar, rat, plasma, po, 10 mg/kg, animal 1, 10 mg/kg oral, read-out: AUC): 2950 ng·h/mL
- Cmax ([2]; male, Wistar, rat, plasma, po, 10 mg/kg, animal 1, 10 mg/kg oral, read-out: Cmax): 1.31 µg/mL
- half-life ([2]; male, Wistar, rat, plasma, po, 10 mg/kg, animal 1, 10 mg/kg oral, read-out: t1/2 (converted)): 54 min
- tmax ([2]; male, Wistar, rat, plasma, po, 10 mg/kg, animal 1, 10 mg/kg oral, read-out: tmax): 15 min
- AUC ([2]; male, Wistar, rat, plasma, po, 10 mg/kg, animal 2, 10 mg/kg oral, read-out: AUC): 2340 ng·h/mL
- Cmax ([2]; male, Wistar, rat, plasma, po, 10 mg/kg, animal 2, 10 mg/kg oral, read-out: Cmax): 1.05 µg/mL
- half-life ([2]; male, Wistar, rat, plasma, po, 10 mg/kg, animal 2, 10 mg/kg oral, read-out: t1/2 (converted)): 54 min
- tmax ([2]; male, Wistar, rat, plasma, po, 10 mg/kg, animal 2, 10 mg/kg oral, read-out: tmax): 60 min
- AUC ([2]; male, Wistar, rat, plasma, po, 10 mg/kg, mean of 2 rats, 10 mg/kg oral, read-out: AUC): ~2600 ng·h/mL
- Cmax ([2]; male, Wistar, rat, plasma, po, 10 mg/kg, mean of 2 rats, 10 mg/kg oral, read-out: Cmax (peak plasma concentration)): ~1 µg/mL
- half-life ([2]; male, Wistar, rat, plasma, po, 10 mg/kg, mean of 2 rats, 10 mg/kg oral, read-out: t1/2 (terminal half-life)): < 60 min
- tmax ([2]; male, Wistar, rat, plasma, po, 10 mg/kg, mean of 2 rats, 10 mg/kg oral, read-out: tmax): 36 min
- concentration at 0.5 h ([2]; male, Wistar, rat, plasma, po, 10 mg/kg, rat R1, 0.5 h, 10 mg/kg oral): 1.3 µg/mL
- concentration at 1 h ([2]; male, Wistar, rat, plasma, po, 10 mg/kg, rat R1, 1 h, 10 mg/kg oral): 1.07 µg/mL
- concentration at 5 h ([2]; male, Wistar, rat, plasma, po, 10 mg/kg, rat R1, 5 h, 10 mg/kg oral): 0.0496 µg/mL
- concentration at 0.5 h ([2]; male, Wistar, rat, plasma, po, 10 mg/kg, rat R2, 0.5 h, 10 mg/kg oral): 0.742 µg/mL
- concentration at 1 h ([2]; male, Wistar, rat, plasma, po, 10 mg/kg, rat R2, 1 h, 10 mg/kg oral): 1.05 µg/mL
- concentration at 5 h ([2]; male, Wistar, rat, plasma, po, 10 mg/kg, rat R2, 5 h, 10 mg/kg oral): 0.0469 µg/mL
- concentration at 7 h ([2]; male, Wistar, rat, plasma, po, 10 mg/kg, rat R2, 7 h, 10 mg/kg oral): 0.0115 µg/mL
- AUC [2, 3]: 2645 ng·h/mL
- t1/2 (terminal half-life) [2, 3]: 54 min
- tmax [2, 3]: 37.8 min
- plasma clearance ([2]; rat): 70 % liver blood flow
- Plasma concentration ([2]; rat R1, 2 h, 10 mg/kg oral, hydrochloride, 10 mg/kg): 0.7228 µg/mL
- Plasma concentration ([2]; rat R1, 3 h, 10 mg/kg oral, hydrochloride, 10 mg/kg): 0.3231 µg/mL
- Plasma concentration ([2]; rat R1, 7 h, 10 mg/kg oral, hydrochloride, 10 mg/kg): 0.0128 µg/mL
- Plasma concentration ([2]; rat R1, 24 h, 10 mg/kg oral, LLOQ 2 ng/ml): <lloq
- Plasma concentration ([2]; rat R2, 2 h, 10 mg/kg oral, hydrochloride, 10 mg/kg): 0.6739 µg/mL
- Plasma concentration ([2]; rat R2, 3 h, 10 mg/kg oral, hydrochloride, 10 mg/kg): 0.2331 µg/mL
- Plasma concentration ([2]; rat R2, 24 h, 10 mg/kg oral, LLOQ 2 ng/ml): <lloq
